Data on 14 compounds can be found in patent publication US20240417387A1, “SULFONYLPIPERAZINYL COMPOUNDS FOR TREATMENT OF BACTERIAL INFECTIONS” (Hoffmann-La Roche Inc., priority 2021, published 2024).

The term MIC denotes the lowest concentration found to suppress growth.

Data set [1] is described as follows: Human microsome stability assay. It counts as in vitro ADME. Particulars: human liver microsomes 0.5 mg/mL, 37° C., pH 7.4, NADPH regenerating system. The procedure:
The human microsomal stability assay is used for early assessment of metabolic stability of a test compound in human liver microsomes.
Human liver microsomes (Cat.NO.: 452117, Corning, USA) were preincubated with test compound for 10 minutes at 37° C. in 100 mM potassium phosphate buffer, pH 7.4. The reactions were initiated by adding NADPH regenerating system. The final incubation mixtures contained 1 µM test compound, 0.5 mg/mL liver microsomal protein, 1 mM MgCl2, 1 mM NADP, 1 unit/mL isocitric dehydrogenase and 6 mM isocitric acid in 100 mM potassium phosphate buffer, pH 7.4. After incubation times of 0, 3, 6, 9, 15 and 30 minutes at 37° C., 300 μL of cold acetonitrile (including internal standard) was added to 100 μL incubation mixture to terminate the reaction. Following precipitation and centrifugation, the amount of compound remaining in the samples were determined by LC-MS/MS. Controls of no NADPH regenerating system at zero and 30 minutes were also prepared and analyzed. […] (Human microsome clearance: <7 mL/min/kg: low; 7-16.2 mL/min/kg: medium; >16.2 mL/min/kg: high)
(In general: Liver microsomes are vesicles of endoplasmic reticulum, rich in cytochrome P450 enzymes.)

For data set [2], the system named is Escherichia coli ATCC 25922. Kind of data set: Minimal Inhibitory Concentration (MIC) broth dilution assay, E. coli ATCC 25922. Format: cell-based. Conditions: Escherichia coli, ATCC25922, 20 h, read-out: MIC E. coli ATCC 25922. The procedure:
(§1) The antibacterial activity of molecules was evaluated against the commonly used quality control strain Escherichia coli BW 25113, Escherichia coli ATCC 25922 and the rifampin-resistant mutant strain Klebsiella pneumonia ATCC 43816. Escherichia co/i BW 25113 was obtained from the Coli Genetic Stock Center (CGSC) (strain 7636). Both Escherichia coli ATCC 25922 and Klebsiella pneumonia ATCC 43816 were originally derived from human clinical samples and are available from ATCC (American Type Culture Collection). The in vitro potency of compounds to inhibit Escherichia coli (BW 25113, ATCC 25922) and Klebsiella pneumonia (ATCC 43816) growth was assessed by the MIC (Minimal Inhibitory Concentration) broth dilution method. Specifically compound dilutions were prepared from 10 mM DMSO stock solutions as follows: i) serial 2-fold dilution in 20 μL DMSO were prepared in a master plate (Greiner, Cat No: 651201), ii) 180 μL sterile distilled water was added to each aliquot and iii) 10 μL diluted compounds were transferred into a new assay plate (Costar, 3599).
(§2) Vials of each test microorganisms were maintained frozen in the vapor phase of a liquid nitrogen freezer. Single-use frozen vials of the three strains Escherichia coli BW 25113, Escherichia coli ATCC 25922 (KWTKSTTK, 0335K) and Klebsiella pneumonia ATCC 43816, with predetermined CFU/mL, were taken out from the freezer, thawed at room temperature, and diluted in Cation-Adjusted Mueller Hinton Broth (CAMVIHB) to achieve a final inoculum of 5×10^5 CFU/mL. 90 μL bacteria containing broth was dispensed to the assay plate containing the pre-dispensed compound dilutions and mixed by pipetting 5 times.
(§3) Then the assay plates were incubated for 20 hours at 35° C. in ambient air. Following incubation, the MIC […], the lowest concentration of drug that inhibits visible growth of the microorganism was read with the help of a magnification mirror and recorded.
In general terms: Broth dilution looks for growth in wells or tubes with falling amounts of substance.

The subject of data set [3] is Klebsiella pneumonia ATCC 43816. Kind of data set: Minimal Inhibitory Concentration (MIC) broth dilution assay, K. pneumonia ATCC 43816. Conditions: Klebsiella pneumoniae, ATCC43816, 20 hours at 35° C., CAMHB, read-out: MIC K. p ATCC 43816. It counts as cell-based. The procedure: as §1, §2, §3
Data set [4] concerns Escherichia coli BW 25113. Kind of data set: Minimal Inhibitory Concentration (MIC) broth dilution assay, E. coli BW 25113. Format: cell-based. Particulars: Escherichia coli, BW25113, 20 hours at 35° C., CAMHB, read-out: MIC E. coli K-12 BW 25113. The protocol: as §1, §2, §3

≈ marks a conversion by molar mass, not a printed value.

For the compound `NC1CC(=O)N(c2ccc(S(=O)(=O)N3CCN(c4cc(C(F)(F)c5ccc(C(=O)NCCCO)cc5)cc(Cl)n4)CC3)cc2)C1` (stereo not shown) [Example 015, 4-[[2-[4-[4-(4-amino-2-oxo-pyrrolidin-1-yl)phenyl]sulfonylpiperazin-1-yl]-6-chloro-4-pyridyl]-difluoro-methyl]-N-(3-hydroxypropyl)benzamide], in data set [1], the “Clearance of Human microsome” value worked out at 9.58 mL/min/kg. The minimum inhibitory concentration (MIC) in data set [2], in data set [3] and in data set [4] was 0.7 µg/mL (≈ 1.06 µM) in each case.

For `NCCCNC(=O)c1ccc(C(F)(F)c2cc(Cl)nc(N3CCN(S(=O)(=O)c4ccc(N5CC(N)CC5=O)cc4)CC3)c2)cc1` (stereo not shown) [Example 016, 4-[[2-[4-[4-(4-amino-2-oxo-pyrrolidin-1-yl)phenyl]sulfonylpiperazin-1-yl]-6-chloro-4-pyridyl]-difluoro-methyl]-N-(3-aminopropyl)benzamide], the “Clearance of Human microsome” value in data set [1] is 8.63 mL/min/kg. The MIC in data set [2], in data set [3] and in data set [4] was 0.35 µg/mL (≈ 0.529 µM) each time.

With `NCCNC(=O)c1ccc(C(F)(F)c2cc(Cl)nc(N3CCN(S(=O)(=O)c4ccc(N5CC(N)CC5=O)cc4)CC3)c2)cc1` (stereo not shown) [Example 017, N-(2-aminoethyl)-4-[[2-[4-[4-(4-amino-2-oxo-pyrrolidin-1-yl)phenyl]sulfonylpiperazin-1-yl]-6-chloro-4-pyridyl]-difluoro-methyl]benzamide], the “Clearance of Human microsome” value in data set [1] is reported as 9.36 mL/min/kg. Moreover, the figures for the MIC in data set [2], in data set [3] and in data set [4] were 0.3 µg/mL (≈ 0.463 µM), 0.45 µg/mL (≈ 0.694 µM) and 0.35 µg/mL (≈ 0.54 µM), respectively.

For `NCC(O)CNC(=O)c1ccc(C(F)(F)c2cc(Cl)nc(N3CCN(S(=O)(=O)c4ccc(N5CC(N)CC5=O)cc4)CC3)c2)cc1` (stereo not shown) [Example 018, N-(3-amino-2-hydroxy-propyl)-4-[[2-[4-[4-(4-amino-2-oxo-pyrrolidin-1-yl)phenyl]sulfonylpiperazin-1-yl]-6-chloro-4-pyridyl]-difluoro-methyl]benzamide], in data set [1], the “Clearance of Human microsome” value turned out to be 6.15 mL/min/kg. The MIC in data set [2], in data set [3] and in data set [4] was 0.62 µg/mL (≈ 0.914 µM) throughout.

Take `NCC(O)CNC(=O)c1ccc(C(F)(F)c2cc(Cl)nc(N3CCN(S(=O)(=O)c4ccc(N5C[C@H](N)CC5=O)cc4)CC3)c2)cc1` (stereo partly drawn) [Example 019, N-(3-amino-2-hydroxy-propyl)-4-[[2-chloro-6-[4-[4-[(4R)-4-amino-2-oxo-pyrrolidin-1-yl]phenyl]sulfonylpiperazin-1-yl]-4-pyridyl]-difluoro-methyl]benzamide]: in data set [1], the “Clearance of Human microsome” value amounted to 10.63 mL/min/kg. The MIC came to 0.71 µg/mL (≈ 1.05 µM) in data set [2], 0.35 µg/mL (≈ 0.516 µM) in data set [3] and 0.35 µg/mL (≈ 0.516 µM) in data set [4].

Consider `NCCNC(=O)[C@H]1CC[C@H](C(F)(F)c2cc(Cl)nc(N3CCN(S(=O)(=O)c4ccc(N5C[C@H](N)CC5=O)cc4)CC3)c2)CC1` [Example 041, Trans-N-(2-aminoethyl)-4-[[2-chloro-6-[4-[4-[(4R)-4-amino-2-oxo-pyrrolidin-1-yl]phenyl]sulfonylpiperazin-1-yl]-4-pyridyl]-difluoro-methyl]cyclohexanecarboxamide], for which the “Clearance of Human microsome” value in data set [1] was determined as 9.73 mL/min/kg. Also, the MIC in data set [2], in data set [3] and in data set [4] was 0.54 µg/mL (≈ 0.825 µM) throughout.

In the case of `NCCCN(CCCN)C(=O)C12CCC(C(F)(F)c3cc(Cl)nc(N4CCN(S(=O)(=O)c5ccc(N6C[C@H](N)CC6=O)cc5)CC4)c3)(CC1)C2` [Example 046], the “Clearance of Human microsome” value in data set [1] came out at 6.15 mL/min/kg. The MIC in data set [2] was found to be 1.2 µg/mL (≈ 1.63 µM); in data set [3], 1.2 µg/mL (≈ 1.63 µM); in data set [4], 2.4 µg/mL (≈ 3.26 µM).

As for `NCCCNC(=O)C1C[C@@H]2CC[C@H]1CC2C(F)(F)c1cc(Cl)nc(N2CCN(S(=O)(=O)c3ccc(N4C[C@H](N)CC4=O)cc3)CC2)c1` (stereo partly shown) [Example 053], the “Clearance of Human microsome” value in data set [1] was 6.15 mL/min/kg. For the same compound, the values for the MIC in data set [2], in data set [3] and in data set [4] were 0.57 µg/mL (≈ 0.821 µM), 0.54 µg/mL (≈ 0.778 µM) and 0.55 µg/mL (≈ 0.792 µM), respectively.

For the compound `C[C@H]1C[C@H](N)CN1C(=O)[C@H]1CC[C@H](C(F)(F)c2cc(Cl)nc(N3CCN(S(=O)(=O)c4ccc(N5C[C@H](N)CC5=O)cc4)CC3)c2)CC1` [Example 064, (4R)-4-amino-1-[4-[4-[4-[[4-[(2S,4S)-4-amino-2-methyl-pyrrolidine-1-carbonyl]cyclohexyl]-difluoro-methyl]-6-chloro-2-pyridyl]piperazin-1-yl]sulfonylphenyl]pyrrolidin-2-one], the “Clearance of Human microsome” value in data set [1] came out at 6.15 mL/min/kg. The values for the MIC in data set [2], in data set [3] and in data set [4] were 0.57 µg/mL (≈ 0.821 µM), 0.57 µg/mL (≈ 0.821 µM) and 0.67 µg/mL (≈ 0.965 µM), respectively.

Turning to `C[N+](CCN)(CCN)CCCNC(=O)[C@H]1CC[C@H](C(F)(F)c2cc(Cl)nc(N3CCN(S(=O)(=O)c4ccc(N5C[C@H](N)CC5=O)cc4)CC3)c2)CC1` [Example 065, Trans-bis(2-aminoethyl)-[3-[[4-[[2-[4-[4-[(4R)-4-amino-2-oxo-pyrrolidin-1-yl]phenyl]sulfonylpiperazin-1-yl]-6-chloro-4-pyridyl]-difluoro-methyl]cyclohexanecarbonyl]amino]propyl]-methyl-ammonium], in data set [1], the “Clearance of Human microsome” value is on record as 8.21 mL/min/kg. Moreover, the MIC in data set [2], in data set [3] and in data set [4] was 0.66 µg/mL throughout.

`NC[C@@H]1CN(C(=O)[C@H]2CC[C@H](C(F)(F)c3cc(Cl)nc(N4CCN(S(=O)(=O)c5ccc(N6C[C@H](N)CC6=O)cc5)CC4)c3)CC2)C[C@@H]1CN` [Example 067, Trans-(4R)-4-amino-1-[4-[4-[4-[[4-[cis-3,4-bis(aminomethyl)pyrrolidine-1-carbonyl]cyclohexyl]-difluoro-methyl]-6-chloro-2-pyridyl]piperazin-1-yl]sulfonylphenyl]pyrrolidin-2-one]: the “Clearance of Human microsome” value in data set [1] is 6.15 mL/min/kg. Also, the MIC in data set [2] turned out to be 0.3 µg/mL (≈ 0.415 µM); in data set [3], 0.57 µg/mL (≈ 0.788 µM); in data set [4], 0.59 µg/mL (≈ 0.816 µM).

Take `C[C@H]1CNC[C@@H]1NC(=O)[C@H]1CC[C@H](C(F)(F)c2cc(Cl)nc(N3CCN(S(=O)(=O)c4ccc(N5C[C@H](N)CC5=O)cc4)CC3)c2)CC1` [Example 068, Trans-4-[[2-[4-[4-[(4R)-4-amino-2-oxo-pyrrolidin-1-yl]phenyl]sulfonylpiperazin-1-y1]-6-chloro-4-pyridy1]-difluoro-methyl]-N-[(3R,4S)-4-methylpyrrolidin-3-yl]cyclohexanecarboxamide]: the “Clearance of Human microsome” value in data set [1] worked out at 9.49 mL/min/kg. The MIC in data set [2], in data set [3] and in data set [4] was 0.32 µg/mL (≈ 0.461 µM) throughout.

In the case of `CN[C@@H]1CC(=O)N(c2ccc(S(=O)(=O)N3CCN(c4cc(C(F)(F)[C@H]5CC[C@H](C(=O)NCCCN)CC5)cc(Cl)n4)CC3)cc2)C1` [Example 069, Trans-N-(3-aminopropyl)-4-[[2-chloro-6-[4-[4-[(4R)-4-(methylamino)-2-oxo-pyrrolidin-1-yl]phenyl]sulfonylpiperazin-1-y1]-4-pyridyl]-difluoro-methyl]cyclohexanecarboxamide], in data set [1], the “Clearance of Human microsome” value was 10.85 mL/min/kg. The MIC in data set [2], in data set [3] and in data set [4] was 0.56 µg/mL (≈ 0.821 µM) each time.

On to `NC[C@@H]1CN([C@@H]2CC[C@H](NC(=O)[C@H]3CC[C@H](C(F)(F)c4cc(Cl)nc(N5CCN(S(=O)(=O)c6ccc(N7C[C@H](N)CC7=O)cc6)CC5)c4)CC3)C2)C[C@@H]1CN` [Example 080, Trans-4-[[2-[4-[4-[(4R)-4-amino-2-oxo-pyrrolidin-1-yl]phenyl]sulfonylpiperazin-1-yl]-6-chloro-4-pyridyl]-difluoro-methyl]-N-[(1S,3R)-3-[cis-3,4-bis(aminomethyl)pyrrolidin-1-yl]cyclopentyl]cyclohexanecarboxamide], for which the MIC in data set [2] came out at 0.33 µg/mL (≈ 0.409 µM); in data set [3] it was 0.99 µg/mL (≈ 1.23 µM); in data set [4] it was 0.33 µg/mL (≈ 0.409 µM).
